Results taken from patent US12509441B2, “Compounds used as kinase inhibitors and application thereof” (TYK MEDICINES (ZHENGZHOU), INC., priority 2020, dated 2025).
Like-named read-outs stand apart in the source and are kept apart here.

Key:
[1] = tested on: H-1975 (EGFRL858R/T790M) cells; test: Cell proliferation inhibitory activity test (WST-8) of related EGFR mutations; format: cell-based; conditions: Homo sapiens, read-out: IC 50 (nM) H-1975 (EGFRL858/T790M)
PC9 (EGFRdel19) cells = test: as above; format: cell-based; conditions: 72 h, cell viability; read-out: IC 50 (nM) PC-9 (EGFRdel19)
[2] = biological target: EGFR exon 20 insertion mutant kinase A763_Y764insFHEA (Homo sapiens, UniProt P00533, INS763FHEA); test: Kinase activity assay (33P-ATP filter-binding), EGFR exon 20 insertion mutant kinase A763_Y764insFHEA; format: biochemical; conditions: for IC50: ATP Km concentration, 10 concentrations
[3] = biological target: EGFR exon 20 insertion mutant kinase D770-N771insNPG (Homo sapiens, UniProt P00533, INS770NPG); test: Kinase activity assay (33P-ATP filter-binding), EGFR exon 20 insertion mutant kinase D770-N771insNPG; format: biochemical; conditions: ATP Km concentration; 10 concentrations
[4] = biological target: T1, Ba/F3-FL-EGFR-V769-D770 ins ASV (Homo sapiens, UniProt P00533, DUP767-769, cells depend on it); test: Cell proliferation inhibitory activity test (CellTiter-Glo), EGFR exon 20 insertion mutation; format: cell-based; conditions: 72 h, read-out: Ba/F3-FL-EGFR IC50 (nM) V769-D770ins ASV
T1 construct: Ba/F3-FL-EGFR IC50 (nM) V769-D770ins ASV; other: 72 h; class symbols; Ba/F3-FL-EGFR IC50 (nM) V769-D770ins ASV

[5] = biological target: Ba/F3-FL-EGFR-D77-N771 ins SVD (Homo sapiens, UniProt P00533, DUP768-770, cells depend on it); test: as above; format: cell-based; conditions: 72 h, read-out: Ba/F3-FL-EGFR IC50 (nM) D77-N771ins SVD
[6] = biological target: Ba/F3-FL-EGFR-A763-Y764 ins FQEA (Homo sapiens, UniProt P00533, INS763FQEA, cells depend on it); test: as above; format: cell-based; conditions: 72 h, read-out: Ba/F3-FL-EGFR IC50 (nM) A763-Y764ins FQEA
[7] = biological target: Ba/F3-FL-EGFR-H773-V774 ins NPH (Homo sapiens, UniProt P00533, DUP771-773, cells depend on it); test: as above; format: cell-based; conditions: 72 h, read-out: Ba/F3-FL-EGFR IC50 (nM) H773-V774ins NPH
[8] = biological target: Ba/F3 (EGFRdel19/L858R/C797S) (Homo sapiens, UniProt P00533, C797S/L858R, cells depend on it, form not given); test: Cell proliferation inhibitory activity test (WST-8) of related EGFR mutations; format: cell-based; conditions: 72 h, cell viability; read-out: IC 50 (nM) Ba/F3 (EGFRdel19/L858/797s)

| IC50 [3] [nM] | GI50 ([4]; class symbols) [nM] | GI50 ([5]; class symbols) [nM] | GI50 ([6]; class symbols) [nM] | GI50 ([7]; class symbols) [nM] | SMILES | other results |
| --- | --- | --- | --- | --- | --- | --- |
| – | – | – | – | – | C=CC(=O)Nc1cc(Nc2nccc(-c3cn(C)c4ccccc34)n2)c(OC)cc1N(C)CCN(C)C [AZD-9291, osimertinib, reference compound] | IC50 ([1]; NCI-H1975, 72 h): 20.2 nM; IC50 (PC9 (EGFRdel19) cells): 7.85 nM |
| 1.48 | – | – | – | – | [2H]C([2H])([2H])n1cc(-c2nc(Nc3cc(NC(=O)C=C)c(N(C)CCN(C)C)nc3OCC(F)(F)F)ncc2-c2nnc(C)o2)c2ccccc21 [Example 3] | IC50 [2]: 6.07 nM |
| 2.79 | – | – | – | – | C=CC(=O)Nc1cc(Nc2ncc(-c3nnc(C)o3)c(-c3cn(C4CC4)c4ccccc34)n2)c(OCC(F)(F)F)nc1N(C)CCN(C)C [Example 4] | IC50 [2]: 15.3 nM |
| 1.38 | – | – | – | – | C=CC(=O)Nc1cc(Nc2ncc(C(=O)OC(C)C)c(-n3ncc4c3Cc3ccccc3-4)n2)c(OC)cc1N(C)CCN(C)C [Example 6] | IC50 [2]: 9 nM |
| 1190 | – | – | – | – | C=CC(=O)Nc1cc(Nc2ncc(C(=O)OC(C)C)c(-n3cc4c(n3)Cc3ccccc3-4)n2)c(OC)cc1N(C)CCN(C)C [Example 7] | IC50 [2]: 5600 nM |
| 1.83 | – | – | – | – | C=CC(=O)Nc1cc(Nc2ncc(C(=O)N(C)S(C)(=O)=O)c(-c3cn(C)c4ccccc34)n2)c(OC)cc1N(C)CCN(C)C [Example 9] | IC50 [2]: 10.4 nM |
| 7.66 | – | – | – | – | [2H]C([2H])([2H])n1cc(-c2nc(Nc3cc(NC(=O)C=C)c(N(C)CCN(C)C)nc3OCC(F)(F)F)ncc2CO)c2ccccc21 [Example 10] | IC50 [2]: 36.4 nM |
| 7360 | – | – | – | – | C=CC(=O)Nc1cc(Nc2ncc(C(=O)OC(C)C)c(-n3ncc4c3-c3ccccc3C4)n2)c(OC)cc1N(C)CCN(C)C [Example 11] | – |
| 0.3 | – | – | – | – | C=CC(=O)Nc1cc(Nc2ncc(C(=O)OC(C)C)c(-n3cc4c(n3)-c3ccccc3C4)n2)c(OC)cc1N(C)CCN(C)C [Example 12] | IC50 [2]: 2.27 nM; activity relative to the compound with the optimal activity disclosed in WO2015195228A1 (TAK788) ([2]; EGFR exon 20 insertion mutant kinases of Table 4): 2 to 3 times |
| 169 | – | – | – | – | C=CC(=O)Nc1cc(Nc2nccc(-n3ncc4c3-c3ccccc3C4)n2)c(OC)cc1N(C)CCN(C)C [Example 13] | IC50 [2]: 61.1 nM |
| 10.1 | – | – | – | – | C=CC(=O)Nc1cc(Nc2ncc(C(=O)OC(C)C)c(-c3nn(C)c4c3Cc3ccccc3-4)n2)c(OC)cc1N(C)CCN(C)C [Example 14] | IC50 [2]: 44.6 nM |
| – | > 50 | – | – | – | C=CC(=O)Nc1cc(Nc2ncc(C3=NOC(C)(C)N3)c(-c3cn(C)c4ccccc34)n2)c(OC)cc1N(C)CCN(C)C [Example 19] | – |
| – | > 50 | – | – | – | C=CC(=O)Nc1cc(Nc2ncc(C3=NOC(C)(C)O3)c(-c3cn(C)c4ccccc34)n2)c(OC)cc1N(C)CCN(C)C [Example 20] | – |
| – | < 5 | – | – | – | C=CC(=O)Nc1cc(Nc2ncc(-c3nnco3)c(-c3cn(C)c4ccccc34)n2)c(OC)cc1N(C)CCN(C)C [Example 21] | – |
| – | < 5 | – | – | – | C=CC(=O)Nc1cc(Nc2ncc(-c3nnc(C)o3)c(-c3cn(C)c4ccccc34)n2)c(OC)cc1N(C)C1(CN(C)C)CC1 [Example 22] | – |
| – | < 5 | < 5 | < 5 | < 5 | C=CC(=O)Nc1cc(Nc2ncc(-c3nnc(C)o3)c(-c3cn(C)c4ccccc34)n2)c(OC)cc1N(C)CC1(N(C)C)CC1 [Example 23] | – |
| – | < 5 | < 5 | < 5 | < 5 | [2H]C([2H])([2H])n1cc(-c2nc(Nc3cc(NC(=O)C=C)c(N(C)CCN(C)C)cc3OC)ncc2-c2nnc(C)o2)c2ccccc21 [Example 24] | – |

| IC50 [3] [nM] | GI50 ([4]; class symbols) [nM] | GI50 ([5]; class symbols) [nM] | GI50 ([6]; class symbols) [nM] | GI50 ([7]; class symbols) [nM] | SMILES | other results |
| --- | --- | --- | --- | --- | --- | --- |
| – | < 5 | 5 to 50 | < 5 | 5 to 50 | C=CC(=O)Nc1cc(Nc2ncc(-c3nnc(C)s3)c(-c3cn(C)c4ccccc34)n2)c(OC)cc1N(C)CCN(C)C [Example 25] | – |
| – | < 5 | < 5 | < 5 | < 5 | C=CC(=O)Nc1cc(Nc2ncc(-c3nnc(C)o3)c(-c3c[nH]c4ccccc34)n2)c(OC)cc1N(C)CCN(C)C [Example 26] | – |
| – | 5 to 50 | – | – | – | C=C(F)C(=O)Nc1cc(Nc2ncc(-c3nnc(C)o3)c(-c3cn(C)c4ccccc34)n2)c(OC)cc1N(C)CCN(C)C [Example 27] | – |
| – | > 50 | – | – | – | C=CC(=O)Nc1cc(Nc2ncc(-c3nnc(C)o3)c(-c3cn(C)c4ccccc34)n2)c(OC)cc1N1C[C@H]2CN(C)C[C@H]2C1 [Example 28] | – |
| – | 5 to 50 | < 5 | < 5 | 5 to 50 | C=CC(=O)Nc1cc(Nc2ncc(-c3nnc(C(F)F)s3)c(-c3cn(C)c4ccccc34)n2)c(OC)cc1N(C)CCN(C)C [Example 29] | – |
| – | > 50 | – | – | – | C=CC(=O)Nc1cc(Nc2ncc(-c3nnc(C)o3)c(-c3cn(C)c4ccccc34)n2)c(OC)cc1N(C)C1CC2(C1)CN(C)C2 [Example 30] | – |
| – | < 5 | – | – | – | C=CC(=O)Nc1cc(Nc2ncc(-c3nnc(C(C)C)o3)c(-c3cn(C)c4ccccc34)n2)c(OC)cc1N(C)CCN(C)C [Example 31] | – |
| – | 5 to 50 | – | – | – | C=CC(=O)Nc1cc(Nc2ncc(-c3nnc(C)o3)c(-c3cn(C)c4ccccc34)n2)c(OC)cc1N(C)C1CCN(C)CC1 [Example 32] | – |
| – | < 5 | < 5 | < 5 | < 5 | C=CC(=O)Nc1cc(Nc2ncc(-c3nnc(CC)o3)c(-c3cn(C)c4ccccc34)n2)c(OC)cc1N(C)CCN(C)C [Example 33] | – |
| – | < 5 | < 5 | < 5 | 5 to 50 | C=C(F)C(=O)Nc1cc(Nc2ncc(-c3nnc(C)o3)c(-c3cn(C)c4ccccc34)n2)c(OC)cc1N(C)[C@H]1[C@@H]2CN(C)C[C@@H]21 [Example 34] | – |
| – | < 5 | < 5 | < 5 | < 5 | C=CC(=O)Nc1cc(Nc2ncc(C(=O)OC(C)C)c(-c3cn(C)c4ccccc34)n2)c(OC)cc1N1C[C@H]2CN(C)C[C@H]2C1 [Example 36] | – |
| – | < 5 | < 5 | < 5 | < 5 | C=CC(=O)Nc1cc(Nc2ncc(C(=O)OC(C)C)c(-c3cn(C)c4ccccc34)n2)c(OC)cc1N(C)[C@H]1[C@@H]2CN(C)C[C@@H]21 [Example 40] | – |
| – | < 5 | < 5 | < 5 | < 5 | C=CC(=O)Nc1cc(Nc2ncc(C(=O)OC(C)C)c(-c3cn(C)c4ccccc34)n2)c(OC)cc1N(C)CC1(N(C)C)CC1 [Example 41] | – |
| – | < 5 | – | – | – | C=CC(=O)Nc1cc(Nc2ncc(C(=O)OC(C)C)c(-c3cn(C)c4ccccc34)n2)c(OC)cc1N(C)C1(CN(C)C)CC1 [Example 42] | – |
| – | < 5 | – | – | – | C=CC(=O)Nc1cc(Nc2ncc(C(=O)OC(C)C)c(-c3cn(C)c4ccccc34)n2)c(OC)cc1N(C)[C@H]1C[C@@H]2CN(C)C[C@@H]2C1 [Example 43] | – |
| – | < 5 | < 5 | < 5 | < 5 | [2H]C([2H])([2H])n1cc(-c2nc(Nc3cc(NC(=O)C=C)c(N(C)[C@H]4[C@@H]5CN(C)C[C@@H]54)cc3OC)ncc2C(=O)OC(C)C)c2ccccc21 [Example 47] | – |
| 0.731 | – | – | – | – | C=CC(=O)Nc1cc(Nc2ncc(C(=O)OC(C)C)c(-c3cn(C)c4ccccc34)n2)c(OC)cc1N(C)CCN(C)C [TAK788, reference compound] | IC50 [2]: 4.19 nM; GI50 [8]: 2630 nM; GI50 [5]: 3.9 nM; GI50 [6]: 3.3 nM; IC50 ([1]; NCI-H1975, 72 h, cell viability): 101 nM; IC50 (PC9 (EGFRdel19) cells): 24.1 nM; GI50 [7]: 3.6 nM; GI50 [4]: 4 nM |
